“And” between values parts separate entries of the source, which are not always exact repeats. Equal entries are not always repeated. Structures can show the parent of a compound that is named as a salt. Where two headings read alike, the source gives them in different places.
Columns and labels:
[1] = target: M. tuberculosis DXR (MtDXR) (Mycobacterium tuberculosis, UniProt P9WNS1); format: biochemical; details: for Ki: read-out: MtDXR Ki; for times less active against MtDXR than 1 and 2: compared with parent compounds 1 and 2
[2] = target: E. coli DXR (EcDXR) (Escherichia coli, UniProt P45568); assay: biochemical; format: biochemical
[3] = system: P. falciparum; details: read-out: EC50 against P. falciparum; ref 8j; cited from earlier work
[4] = system: DXR; details: read-out: DXR IC50; ref 9b; cited from earlier work
[5] = system: MtDXR; details: read-out: Km of substrate for MtDXR; ref 2d; cited from earlier work
[6] = system: EcDXR; details: read-out: Km of substrate for EcDXR; cited from earlier work
[7] = system: MtDXR; details: read-out: MtDXR IC50; using […] of Mn2+; cited from earlier work
[8] = background statement, no reference given; cited from earlier work

Sequence of M. tuberculosis DXR (MtDXR) (P9WNS1 whole entry, looked up): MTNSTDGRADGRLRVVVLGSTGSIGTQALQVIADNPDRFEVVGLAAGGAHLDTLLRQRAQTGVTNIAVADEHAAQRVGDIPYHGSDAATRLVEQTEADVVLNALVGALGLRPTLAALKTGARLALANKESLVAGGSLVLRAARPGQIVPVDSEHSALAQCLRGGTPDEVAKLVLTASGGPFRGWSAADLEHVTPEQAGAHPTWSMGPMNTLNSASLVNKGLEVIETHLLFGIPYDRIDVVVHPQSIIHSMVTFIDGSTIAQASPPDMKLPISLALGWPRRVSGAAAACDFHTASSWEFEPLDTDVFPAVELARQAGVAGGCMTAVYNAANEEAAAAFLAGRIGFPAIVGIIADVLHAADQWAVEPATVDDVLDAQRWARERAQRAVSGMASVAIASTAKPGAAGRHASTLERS
Sequence of E. coli DXR (EcDXR) (P45568 whole entry): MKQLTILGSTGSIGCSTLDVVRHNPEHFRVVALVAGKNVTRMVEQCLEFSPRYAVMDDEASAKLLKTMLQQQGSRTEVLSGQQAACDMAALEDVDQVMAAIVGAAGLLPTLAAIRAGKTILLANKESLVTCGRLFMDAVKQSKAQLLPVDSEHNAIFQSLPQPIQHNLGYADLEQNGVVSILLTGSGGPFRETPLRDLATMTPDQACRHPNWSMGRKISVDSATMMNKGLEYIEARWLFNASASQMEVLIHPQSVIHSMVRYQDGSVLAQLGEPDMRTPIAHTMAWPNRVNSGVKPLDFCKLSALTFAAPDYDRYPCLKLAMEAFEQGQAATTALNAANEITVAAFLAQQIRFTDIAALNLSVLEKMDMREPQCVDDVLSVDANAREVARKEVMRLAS

Row | Structure (SMILES) | Ki [1] [µM] | Ki [2] [µM] | Ki ([2]; read-out: EcDXR Ki) [µM] | other results
1 | O=P(O)(O)Cc1cccnc1 [Compound 14] | > 100 | – | – | –
2 | CC(=O)N(O)CCCP(=O)(O)O [Compound 2, FR900098, reference compound] | – | – | – | times weaker binding / less active against MtDXR than EcDXR [1]: ~ 6 ×
3 | O=c1ccc(CP(=O)(O)O)cn1O [Compound 24, 5-(1-Hydroxy-pyridin-2-one)methylphosphonic acid disodium salt] | – | > 49.7 | – | inhibitory activity against EcDXR (in words) ([2]; up to 100 μM): essentially inactive
4 | O=C(O)Cc1ccc(-c2ccccc2)cn1 [Compound 46, (5-Phenylpyridin-2-yl)acetic acid] | – | > 49.7 | – | –
5 | O=C(O)Cc1cccnc1 [Compound 41] | > 100 | > 49.7 | > 100 | –
6 | O=P(O)(O)C(Nc1ccc(Cl)cn1)P(=O)(O)O [Compound 6, reference compound] | > 100 | – | – | times weaker binding / less active against MtDXR than EcDXR [1]: > 5 ×
7 | O=C(O)Cc1ccccn1 [Compound 40] | > 100 | > 49.7 | > 100 | –
8 | O=P(O)(O)c1ccccc1 [Compound 18, Phenylphosphonic acid disodium salt] | > 100 | > 49.7 | > 100 | –
9 | O=C(Cc1ccccn1)NO [Compound 44, N-hydroxy-(pyridin-2-yl)acetamide] | – | > 49.7 | – | –
10 | O=P(O)(O)c1ccccn1 [Compound 11, Pyridin-2-ylphosphonic acid disodium salt] | > 100 | > 49.7 | > 100 | inhibitory activity against EcDXR (in words) ([2]; up to 100 μM): essentially no activity
11 | O=P(O)(O)Cc1ccc(O)cn1 [Compound 30, (5-Hydroxylpyridin-2-yl)methylphosphonic acid disodium salt] | – | – | – | times as potent as 8 against EcDXR ([2]; Ki ratio to compound 8): ~ 3 ×
12 | O=P(O)(O)Cc1cnccn1 [Compound 16, Pyrazin-2-ylmethylphosphonic acid disodium salt] | > 100 | – | – | –
13 | O=C(O)Cc1ccncc1 [Compound 42] | > 100 | > 49.7 | > 100 | –
14 | O=P(O)(O)Cc1ccc(-c2ccccc2)cn1 [Compound 9, 5-phenylpyridin-2-ylmethylphosphonic acid] | – | – | – | affinity loss to MtDXR compared to EcDXR ([1]; Ki MtDXR vs Ki EcDXR): 7 fold; times as potent as 8 against EcDXR [2]: 5 ×
15 | O=S(=O)(O)Cc1ccc(-c2ccccc2)cn1 [Compound 48, 5-Phenylpyridin-2-ylmethanesulfonic acid sodium salt] | > 100 | > 49.7 | > 100 | –
16 | O=CN(O)CCC(c1ccc(Cl)c(Cl)c1)P(=O)(O)O (stereo not shown) [Compound 3, reference compound] | – | – | – | affinity loss to MtDXR compared to EcDXR ([1]; Ki MtDXR vs Ki EcDXR): 21 fold; times less active against MtDXR than 1 and 2 [1]: ~ 10 ×; EC50 [3]: 0.09 µM
17 | O=P(O)(O)Cc1cccc(-c2ccccc2)n1 [Compound 33, (6-Phenylpyridin-2-yl)methylphosphonic acid disodium salt] | > 100 | – | – | –
18 | O=c1cccc(CCP(=O)(O)O)[nH]1 [Compound 25, 2-(Pyridin-2-one-6-yl)ethylphosphonic acid disodium salt] | – | > 49.7 | – | inhibitory activity against EcDXR (in words) ([2]; up to 100 μM): essentially inactive
19 | O=P(O)(O)Cc1ccc(OCc2ccccc2)cn1 [Compound 31, (5-Benzyloxypyridin-2-yl)methylphosphonic acid disodium salt] | > 100 | > 49.7 | > 100 | inhibitory activity against EcDXR (in words) [2]: inactive

Row | Structure (SMILES) | Ki [1] [µM] | Ki [2] [µM] | Ki ([2]; read-out: EcDXR Ki) [µM] | other results
20 | O=c1ccc(-c2ccccc2)cn1O [Compound 7, reference compound] | – | – | – | times weaker binding / less active against MtDXR than EcDXR ([1]; Ki MtDXR vs Ki EcDXR): 31 ×; IC50 [4]: 1.4 µM
21 | Cc1ccc(-c2ccc(CP(=O)(O)O)nc2)cc1 [Compound 36, 5-(4-Methylphenyl)pyridin-2-ylmethylphosphonic acid disodium salt] | > 100 | – | – | –
22 | O=P(O)(O)Cc1ccc(-c2ccc(Cl)cc2)cn1 [Compound 35, 5-(4-Chlorophenyl)pyridin-2-ylmethylphosphonic acid disodium salt] | > 100 | – | – | –
23 | O=P(O)(O)CCCc1ccccn1 [Compound 13, 3-(Pyridin-2-yl)propylphosphonic acid disodium salt] | > 100 | – | – | times less potent than 8 against EcDXR ([2]; Ki ratio to compound 8): ~4 ×
24 | O=P(O)(O)Cc1cccc(O)c1O [Compound 23] | > 100 | > 49.7 | > 100 | inhibitory activity against EcDXR (in words) ([2]; up to 100 μM): no inhibitory activity
25 | O=C(NO)c1ccccn1 [Compound 43, N-hydroxy-pyridine-2-carboxamide] | – | > 49.7 | – | –
26 | COc1cccc(-c2ccc(CP(=O)(O)O)nc2)c1 [Compound 37, 5-(3-Methoxyphenyl)pyridin-2-ylmethylphosphonic acid disodium salt] | > 100 | – | – | –
27 | O=P(O)(O)CCc1ccccc1 [Compound 20, 2-Phenylethylphosphonic acid disodium salt] | > 100 | > 49.7 | > 100 | –
28 | O=P(O)(O)Cc1ccc(Cl)c(Cl)c1 [Compound 21] | > 100 | > 49.7 | > 100 | inhibitory activity against MtDXR (in words) [1]: essentially no activity; inhibitory activity against EcDXR (in words) ([2]; up to 100 μM): essentially no activity
29 | O=P(O)(O)Cc1cc(-c2ccc(F)cc2)ccn1 [Compound 28, 4-(4-Fluorophenyl)pyridin-2-ylmethylphosphonic acid disodium salt] | > 100 | – | – | –
30 | O=C(O)c1ccccn1 [Compound 39] | > 100 | > 49.7 | > 100 | –
31 | CC(=O)[C@@H](O)[C@H](O)COP(=O)(O)O [DXP, 1-deoxy-D-xylulose-5-phosphate] | – | – | – | Km [5]: 47.1 µM; Km [6]: 99 µM
32 | O=P(O)(O)CCc1ccccn1 [Compound 12, 2-(Pyridin-2-yl)ethylphosphonic acid disodium salt] | > 100 | – | – | times less potent than 8 against EcDXR ([2]; Ki ratio to compound 8): ~ 8 ×
33 | O=C(O)c1ccc(-c2ccccc2)cn1 [Compound 45, 5-Phenylpyridine-2-carboxylic acid] | > 100 | > 49.7 | > 100 | –
34 | O=C(Cc1ccc(-c2ccccc2)cn1)NO [Compound 47, N-hydroxy-(5-phenylpyridin-2-yl)acetamide] | – | > 49.7 | – | –
35 | O=P(O)(O)CCc1ccccc1O [Compound 22, 2-(2-Hydroxyphenyl)ethylphosphonic acid disodium salt] | > 100 | > 49.7 | > 100 | inhibitory activity against EcDXR (in words) ([2]; up to 100 μM): no inhibitory activity
36 | O=P(O)(O)Cc1ccccc1 [Compound 19, Benzylphosphonic acid disodium salt] | > 100 | > 49.7 | > 100 | –
37 | CC(=O)N(O)CCC(c1ccc(Cl)c(Cl)c1)P(=O)(O)O (stereo not shown) [Compound 4, reference compound] | – | – | – | affinity loss to MtDXR compared to EcDXR ([1]; Ki MtDXR vs Ki EcDXR): 42 fold; times less active against MtDXR than 1 and 2 [1]: ~ 10 × and 10 ×; EC50 [3]: 0.25 µM
38 | O=CN(O)CCCP(=O)(O)O [Compound 1, Fosmidomycin] | – | – | – | times weaker binding / less active against MtDXR than EcDXR ([1]; Ki MtDXR vs Ki EcDXR): ~ 5 × and 5 ×; IC50 [7]: 0.08 µM; EC50 [3]: 1.1 µM; half-life in plasma [8]: ~ 1 h; oral availability [8]: poor oral availability

From article PMC3601441 (Journal of medicinal chemistry, 2011)
